Measured values taken from patent publication US12039796B2, “Method for classifying cells” (Sartorius BioAnalytical Instruments, Inc., priority 2019, dated 2024).
Where two headings read alike, the source gives them in different places.

How the values were obtained:
HT1080 fibrosarcoma = HT1080 fibrosarcoma apoptosis time course, multiplexed NucLight Red (viability) and Caspase 3/7 Green (apoptosis) readouts with cell-by-cell analysis; assay type: cell-based
Experimental: Example implementations permit cell health to be tracked in sub-populations over time. […] Cell health was determined with multiplexed readouts of Incucyte® NucLight Red (nuclear viability marker) and non-perturbing Incucyte® Caspase 3/7 Green Reagent (apoptotic indicator). […] Values shown are the mean±SEM of 3 wells.
Cell health was determined with multiplexed readouts of Incucyte® NucLight Red (nuclear viability marker) and non-perturbing Incucyte® Caspase 3/7 Green Reagent (apoptotic indicator). […] Values shown are the mean±SEM of 3 wells.

A549 cells = test: A549 cell death concentration response, cells classed Dead or Live by Annexin V fluorescence or by label-free trained model; assay type: cell-based; conditions: Homo sapiens, A549, 72 h, 0.1-10 μM, FIG. 16C
Experimental: The classification methods described herein facilitate classification of cells with an accuracy that approximates the accuracy of fluorophore-based methods. This allows for accurate classification without the expense, complexity, or experimental confounding effects that may be associated with the use of fluorescent labels. In an experiment, A549 cells were treated with increasing concentrations of the cytotoxic compound camptothecin (0.1-10 μM) for 72 h in the presence of Annexin V reagent. The cells were classed as Dead or Live based on fluorescence Annexin response (live cells=low fluorescence, dead cells=high fluorescence). The metric-based methods described herein were used to train a model using label-free features of dead (10 μM, 72 h) and live (vehicle, 0-72 h) cells.

[1] = HT1080, after treatment, FIG. 6C

Compound	apoptosis (HT1080 fibrosarcoma; HT1080, after treatment, FIG. 6G)	cell counts (HT1080 fibrosarcoma; HT1080, after treatment, FIG. 6G (data not shown))	green fluorescence (late apoptosis) (HT1080 fibrosarcoma; HT1080, after 24 hours, FIG. 6C)	red and green fluorescence (early apoptosis) (HT1080 fibrosarcoma; [1])	red population (NucLight Red, viable cells) (HT1080 fibrosarcoma; [1])	EC50 (A549 cells; Annexin V fluorescence-based classification, read-out: Annexin V EC50 (% death))	EC50 (A549 cells; label-free metric-based trained model classification, read-out: Label-free EC50 (% death))
C[C@@H]1C[C@@H]([C@H](O)CC2CC(=O)NC(=O)C2)C(=O)[C@@H](C)C1 [CHX, cyclohexamide]	lack of apoptosis	decrease in cell counts	–	–	–	–	–
CC[C@@]1(O)C(=O)OCc2c1cc1n(c2=O)Cc2cc3ccccc3nc2-1 [camptothecin]	–	–	increasing green fluorescence after 24 hours indicating late apoptosis	increasing red and green fluorescence indicating early apoptosis	decrease in the red population	0.66 µM	0.53 µM
